Data from ChEMBL document CHEMBL5233245, “Monocarboxylate transporter 1 and 4 inhibitors as potential therapeutics for treating solid tumours: A review with structure-activity relationship insights” (Eur J Med Chem, 2020).
pEC50, pIC50, pKi: −log10 of the molar value. Each block holds one compound with its values, some of them ahead of it.

Assays:
[1] = molecular target: T1, Monocarboxylate transporter 1 (Homo sapiens, UniProt P53985); assay: Inhibition of MCT1 (unknown origin) assessed as reduction in [14C]lactate uptake incubated for 20 mins by liquid scintillation counting analysis
T1 sequence (P53985 whole entry): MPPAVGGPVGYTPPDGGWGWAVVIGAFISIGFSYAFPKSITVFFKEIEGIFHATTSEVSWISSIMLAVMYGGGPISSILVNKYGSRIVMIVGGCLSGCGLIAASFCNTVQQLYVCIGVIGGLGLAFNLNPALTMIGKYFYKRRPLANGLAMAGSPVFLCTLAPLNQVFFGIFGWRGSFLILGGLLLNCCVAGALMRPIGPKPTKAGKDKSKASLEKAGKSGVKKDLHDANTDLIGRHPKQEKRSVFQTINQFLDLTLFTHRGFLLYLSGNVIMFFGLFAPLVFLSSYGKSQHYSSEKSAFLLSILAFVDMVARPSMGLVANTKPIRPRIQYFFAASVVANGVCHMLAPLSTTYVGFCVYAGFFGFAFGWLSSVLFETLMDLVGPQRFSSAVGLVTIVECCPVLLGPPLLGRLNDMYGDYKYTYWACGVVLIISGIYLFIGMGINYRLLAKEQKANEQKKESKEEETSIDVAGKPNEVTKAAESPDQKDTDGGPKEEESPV

[2] = molecular target: T2, Monocarboxylate transporter 1 (Rattus norvegicus, UniProt P53987); assay: Inhibition of MCT1 in rat Brain-like endothelial cells incubated for 15 mins in presence of [14C]lactic acid by scintillation counter assay; format: cell-based
T2 sequence (P53987 whole entry): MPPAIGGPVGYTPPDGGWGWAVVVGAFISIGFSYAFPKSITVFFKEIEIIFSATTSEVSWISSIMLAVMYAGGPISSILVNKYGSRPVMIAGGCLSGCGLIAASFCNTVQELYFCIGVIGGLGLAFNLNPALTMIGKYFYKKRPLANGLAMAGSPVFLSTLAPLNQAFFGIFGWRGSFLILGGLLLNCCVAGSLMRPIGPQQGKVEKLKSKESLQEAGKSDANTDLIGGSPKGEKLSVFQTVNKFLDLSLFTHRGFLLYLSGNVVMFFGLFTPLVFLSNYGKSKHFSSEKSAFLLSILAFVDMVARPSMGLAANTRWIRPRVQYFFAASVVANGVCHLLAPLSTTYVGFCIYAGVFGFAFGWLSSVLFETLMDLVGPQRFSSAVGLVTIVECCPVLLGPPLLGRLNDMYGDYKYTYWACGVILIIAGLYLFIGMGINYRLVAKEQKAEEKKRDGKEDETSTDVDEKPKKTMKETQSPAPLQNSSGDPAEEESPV

[3] = molecular target: T2, Monocarboxylate transporter 1; assay: Binding affinity to MCT1 in rat Erythrocyte assessed as inhibition constant; format: cell-based
[4] = molecular target: T3, Monocarboxylate transporter 2 (Rattus norvegicus, UniProt Q63344); assay: Binding affinity to MCT2 in rat Erythrocyte assessed as inhibition constant; format: cell-based
T3 sequence (Q63344 whole entry): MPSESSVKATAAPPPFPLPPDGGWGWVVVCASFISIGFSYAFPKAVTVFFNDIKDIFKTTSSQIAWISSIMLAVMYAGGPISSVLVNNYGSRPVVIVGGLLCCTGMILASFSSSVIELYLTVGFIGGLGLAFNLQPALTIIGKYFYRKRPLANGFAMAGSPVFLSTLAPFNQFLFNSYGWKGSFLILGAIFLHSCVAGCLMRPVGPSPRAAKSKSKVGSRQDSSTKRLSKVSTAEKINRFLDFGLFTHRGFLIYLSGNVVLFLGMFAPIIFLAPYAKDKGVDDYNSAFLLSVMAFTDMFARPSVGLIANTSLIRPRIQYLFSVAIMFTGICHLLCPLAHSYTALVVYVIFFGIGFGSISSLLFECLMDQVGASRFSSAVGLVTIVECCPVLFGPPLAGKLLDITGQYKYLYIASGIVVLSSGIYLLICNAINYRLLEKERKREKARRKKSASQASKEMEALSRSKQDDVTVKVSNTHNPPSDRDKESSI

Raji [5] = assay: Cytotoxicity against human Raji cells assessed as inhibition of cell growth by MTT assay; format: functional, cell-based
[6] = molecular target: T2, Monocarboxylate transporter 1; assay: Inhibition of MCT1 in rat Brain-like endothelial cells incubated for 15 mins in presence of [14C]lactate by […]; format: cell-based
MDA-MB-231 = assay: Cytotoxicity against human MDA-MB-231 cells assessed as inhibition of cell growth; format: functional, cell-based
Mus musculus = assay: Antitumor activity against human WiDr cells xenografted in CD-1 mouse assessed as reduction in tumor growth at 25 mg/kg,ip qd measured after 16 days; format: functional; set-up: scale not given: the % may be the effect or the level left; settings: time 16 day
Raji [7] = assay: Antiproliferative activity against human Raji cells assessed as inhibition of cell growth by MTT assay; format: functional, cell-based
[8] = molecular target: T1, Monocarboxylate transporter 1; assay: Binding affinity to MCT1 (unknown origin) assessed as inhibition constant
[9] = molecular target: T4, Monocarboxylate transporter 4 (Homo sapiens, UniProt O15427); assay: Binding affinity to human MCT4 expressed in Xenopus laevis oocytes assessed as inhibition constant in presence of [14C]lactate by fluorescence assay
T4 sequence (O15427 whole entry): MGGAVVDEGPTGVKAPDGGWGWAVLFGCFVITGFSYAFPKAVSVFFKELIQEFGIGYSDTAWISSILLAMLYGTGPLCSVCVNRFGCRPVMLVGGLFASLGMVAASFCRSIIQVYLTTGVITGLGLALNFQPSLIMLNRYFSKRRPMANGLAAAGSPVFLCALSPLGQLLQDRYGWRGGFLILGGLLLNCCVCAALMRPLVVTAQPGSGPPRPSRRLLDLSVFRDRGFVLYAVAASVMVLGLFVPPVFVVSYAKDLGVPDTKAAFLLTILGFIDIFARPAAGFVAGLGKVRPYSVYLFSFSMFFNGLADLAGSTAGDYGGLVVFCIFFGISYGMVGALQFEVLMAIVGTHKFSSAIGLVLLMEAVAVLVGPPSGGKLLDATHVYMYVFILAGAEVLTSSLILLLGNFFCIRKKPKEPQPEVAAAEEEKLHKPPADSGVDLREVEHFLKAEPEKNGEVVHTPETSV

[10] = molecular target: T4, Monocarboxylate transporter 4; assay: Inhibition of MCT4 (unknown origin)
[11] = molecular target: T1, Monocarboxylate transporter 1; assay: Inhibition of MCT1 (unknown origin)

pIC50 [1]: 7.96
Structure (SMILES): COc1cc(N(CC(C)C)CC(C)C)ccc1/C=C(\C#N)C(=O)O

pIC50 [1]: 7.47
Structure (SMILES): CCCCCN(CCCCC)c1ccc(/C=C(\C#N)C(=O)O)c(OC)c1

pIC50 [1]: 7.32
Structure (SMILES): COc1cc(N2CCCC2)ccc1/C=C(\C#N)C(=O)O

pIC50 [1]: 7.60
Structure (SMILES): COc1cc(N2CCCCC2)ccc1/C=C(\C#N)C(=O)O

pIC50 [1]: 7.43
Structure (SMILES): COc1cc(N(Cc2ccccc2)Cc2ccccc2)ccc1/C=C(\C#N)C(=O)O

pIC50 [2]: 7.89
Structure (SMILES): N#C/C(=C\c1cn(-c2ccccc2)c2ccccc12)C(=O)O

pIC50 [2]: 7.18
Structure (SMILES): N#C/C(=C\c1cn(Cc2ccccc2)c2ccccc12)C(=O)O

pKi [3]: 8.70
pKi [4]: > 8.00
Structure (SMILES): Cc1n[nH]c(C)c1Cc1sc2c(c1C(=O)N1C[C@@H](O)CO1)c(=O)n(C)c(=O)n2CC(C)C

Structure (SMILES): CC(C)c1cc(=O)c2c(OCCCO)cc(OCc3ccc4ccccc4c3)cc2o1
pEC50 (Raji [5]): 7.00

pIC50 [6]: < 5.30
Structure (SMILES): N#C/C(=C\c1ccc(OCCBr)cc1)C(=O)O

Structure (SMILES): Cc1cc(=O)c2c(OCCCO)cc(OCc3ccc4ccccc4c3)cc2o1
pEC50 (Raji [5]): 6.00

Structure (SMILES): COC(=O)[C@@](O)(CO)COC(=O)c1nn(-c2ccc(N(Cc3ccccc3)Cc3ccccc3)cc2)c2ccccc12
pIC50 (MDA-MB-231): 5.63

Structure (SMILES): CC(C)(C)[Si](OCCOc1ccc(/C=C(\C#N)C(=O)O)cc1)(c1ccccc1)c1ccccc1
Activity (Mus musculus): 28%

pIC50 [6]: < 5.30
Structure (SMILES): N#C/C(=C\c1ccc(OCCO)cc1)C(=O)O

Structure (SMILES): CC(C)c1cc(=O)c2c(OCc3ccccc3CO)cc(OCc3ccc4ccccc4c3)cc2o1
pEC50 (Raji [5]): < 4.00

pIC50 [2]: < 6.00
Structure (SMILES): N#C/C(=C\c1cn(-c2ccccn2)c2ccccc12)C(=O)O

pEC50 (Raji [7]): > 7.30
Structure (SMILES): CC(C)Cn1c(=O)n(C)c(=O)c2nc(CCCCCO)c(COc3ccc4ccccc4c3)nc21

Structure (SMILES): CC(C)(C)[Si](Oc1ccc(/C=C(\C#N)C(=O)O)cc1)(c1ccccc1)c1ccccc1
Activity (Mus musculus): 28%

Structure (SMILES): COC(=O)[C@@](O)(CO)COC(=O)c1nn(-c2ccc(N(Cc3ccc(F)cc3)Cc3ccc(F)cc3)cc2)c2ccccc12
pIC50 (MDA-MB-231): 5.52

pKi [8]: 8.70
Structure (SMILES): Cc1[nH]nc(C(F)(F)F)c1Cc1sc2c(c1C(=O)N1C[C@](C)(O)CO1)c(=O)n(C)c(=O)n2C(C)C [AZD3965]

pKi [9]: 4.52
Structure (SMILES): CC(C)(OCc1nn(Cc2ccccc2)c2ccccc12)C(=O)O [BINDARIT]

Structure (SMILES): N#C/C(=C\c1ccc(O)cc1)C(=O)O [alpha-CYANO-4-HYDROXYCINNAMIC ACID]
pIC50 [10]: < 3.82
pIC50 [11]: 4.00
